How the values were obtained:
skin [1] = details: DBA/2, 4 mg/kg, cited from earlier work
[2] = In vitro photodegradation of BPD in mouse blood; format: physicochemical; details: for photodegraded BPD, Dose / Photodegraded BPD: in vitro
Procedure: (§1) Determination of BPD Concentration in Plasma: Plasma samples were obtained by centrifugation of blood collected from mice and stored frozen at -20° C. until assessment. The concentration of BPD in the samples was determined by fluorometry using a Jasco Model FP-770 (Japan Spectroscopic Co.) spectrofluorometer and a microcuvette (Far UV Quartz Cell, Starna Cells Inc.). Excitation and emission wavelengths were 439 and 699 nm, respectively. Plasma samples were diluted 20-fold with PBS containing 1% Triton® X-100 immediately before fluorescence was determined. BPD standards were prepared in 5% mouse plasma in PBS with 1% Triton® X-100. Under these conditions the relationship between the concentration of BPD and units of fluorescence was linear (correlation coefficient >0.99) for concentrations between 0.1 ng/ml and 1 μg/ml. The limit of detection was below 0.1 ng/ml sample which corresponded to 2 ng/ml plasma. […] The 699 nm fluorescence peak of BPD was virtually free from any interference.
In order to assess the amount of light penetrating the tissues, in vitro experiments with mouse blood were carried out. The same light source was used, therefore the spectrum of light was the same. The light doses in this experiment were selected to mimic the doses in the in vivo experiments.
Liposomal BPD was added to freshly obtained heparinized mouse blood to achieve a concentration of 1 μg/ml, following which […] aliquots of blood were dispensed into 35 mm diameter petri dishes, which were placed in the light box and exposed to red light. The dishes were irradiated in the light box from below only. The intensity of light was 35 mW/cm^2. Three different light doses, entailing exposure of 30 min, 1 hour and 1.5-hour, were 63, 126 and 189 J/cm^2, respectively. Duplicate dishes were kept covered with aluminum foil. Immediately following light exposure, the blood was collected from the dishes. Then the plasma was separated by centrifugation. The control unexposed samples were processed at time points corresponding to the light exposed samples.
The concentration of BPD in plasma separated from light-exposed and unexposed blood was determined by fluorescence. About 51-83% of BPD was degraded by the ranges of light doses used.

L1210 cells = assay: Surviving clonogenic L1210 cells in mouse blood; format: in vivo, Balb/c mice; details: for Surviving cells in blood: average of 3 mice/group
Procedure: (§2) Male mature DBA/2 and Balb/c mice were injected intravenously with P815 and L1210 cells, respectively, preincubated for 1 hour with BPD (liposomal) at 100 ng/ml. Immediately before animal injection, an additional 2 μg of BPD was added to the syringes containing cells. […] One group of mice (shaved and depilated) was exposed immediately to red light (600-900 nm) in the light box for 1.5 hours (162 J/cm^2); the other group was kept in the dark as the control.
(§3) Immediately after exposure to light, blood samples were obtained by a heart puncture under halothane anesthesia. The concentration of BPD in plasma of light-exposed and control mice was determined by fluorescence. The number of clonogenic tumor cells in mouse blood was determined by culturing blood samples in culture medium supplemented with 10% bovine serum, using a limiting dilution assay protocol.

[3] = tested on: free viruses and virally infected cells; details: with red light (400-900 nm); spiked blood products and whole blood from viremic cats; cited from earlier work
[4] = BPD concentration in plasma of mice injected with P815 cells; format: in vivo, DBA/2 mice; details: for BPD in Plasma: DBA/2 mice injected with P815 cells; for BPD in Plasma, % of dark control: P815
Procedure: as §1, §2, §3

skin [5] = assay: Skin changes and general behavior after treatment (Example 5 and preceding examples); format: in vivo, mice; details: maximum observation period 2 weeks
[6] = in vivo; cited from earlier work
[7] = tested on: tumor tissue, including leukemic cells; details: cited from earlier work

benzoprophyrin derivative monoacid ring A [BPD]
immediate post-exposure changes in the skin (skin [1]; 153 J/cm^2 (170 mW/cm^2) at 3 h): no immediate post-exposure changes in the skin were observed
skin necrosis (skin [1]; 153 J/cm^2 (170 mW/cm^2) at 3 h, within first 24 hour post-exposure, progressed up to 96 hours): severe skin necrosis
healing of wounds (skin [1]; 153 J/cm^2, eventually): the wounds healed and the hair regrew
BPD concentration in plasma separated from blood ([2]; 0 h, no light, BPD 1 μg/ml blood): 0.760 µg/mL
BPD concentration in plasma separated from blood ([2]; 1 1/2 h, 189 J/cm^2): 0.144 µg/mL
BPD concentration in plasma separated from blood ([2]; 1 1/2 h, no light): 0.830 µg/mL
BPD concentration in plasma separated from blood ([2]; 1/2 h, 63 J/cm^2): 0.394 µg/mL
BPD concentration in plasma separated from blood ([2]; 1/2 h, no light): 0.806 µg/mL
BPD degraded in vitro ([2]; 63-189 J/cm^2, about): 51-83%
BPD concentration in plasma separated from blood ([2]; 1 h, 126 J/cm^2): 0.220 µg/mL
BPD concentration in plasma separated from blood ([2]; 1 h, no light): 0.810 µg/mL
photodegraded BPD, Dose ([2]; 63 J/cm^2): 0.412 µg/mL
Photodegraded BPD ([2]; 63 J/cm^2, 1/2 h, 30 min): 51%
photodegraded BPD, Dose ([2]; 126 J/cm^2): 0.590 µg/mL
Photodegraded BPD ([2]; 126 J/cm^2, 1 h): 73%
photodegraded BPD, Dose ([2]; 189 J/cm^2): 0.686 µg/mL
Photodegraded BPD ([2]; 189 J/cm^2, 1 1/2 h, 90 min): 83%
Surviving cells in blood (L1210 cells; Dark control): 234 L1210 cells/2 ml blood/mouse
Surviving cells in blood (L1210 cells; Light exposed (162 J/cm^2)): 21 L1210 cells/2 ml blood/mouse
destruction of BPD pre-loaded tumor cells (L1210 cells; whole body exposure to red light (L1210 and P815 examples)): a large number of BPD pre-loaded tumor cells were destroyed
elimination of free viruses and virally infected cells [3]: effective in eliminating both free viruses and virally infected cells
Percent photodegraded ([4]; DBA/2, P815, 162 J/cm^2): 38%
BPD in Plasma ([4]; Dark control): 94.09 ng/mL
BPD in Plasma, % of dark control ([4]; Dark control): 100%
BPD in Plasma ([4]; Light exposed (162 J/cm^2)): 58.14 ng/mL
BPD in Plasma, % of dark control ([4]; Light exposed (162 J/cm^2)): 62%
skin photosensitivity and change in behavior (skin [5]): neither skin photosensitivity nor change in the behavior of animals were observed
time of accumulation of BPD in the skin [6]: up to 5 hours
affinity for tumor tissue versus normal cells [7]: higher affinity for tumor tissue, including leukemic cells, than for normal non-malignant cells

Reference: US5484803A, “Transcutaneous in vivo activation of photosensitive agents in blood” (priority 1995, dated 1996)
